# How the values were obtained:
# [1] = test system: activated Cas-1 in primary peritoneal macrophages; test: High-content screening / fluorescence imaging for caspase-1 modulators in primary peritoneal macrophages; assay type: cell-based, mouse; details: MCC950 1 μM with Nig 10 μM simultaneously, after LPS; FPy1 5 μM
# Excerpt: The efficient and rapid discovery of Cas-1 modulators is of significant importance considering the therapeutic potential of Cas-1 in various diseases.[39,40] Therefore, we employed FPy1 to construct a high-content screening system aimed at identifying Cas-1 modulators. The level of activated Cas-1 in cells is influenced by multiple factors. To reduce the impact of factors that affect Cas-1 activation in cells, we utilized the NLRP3 inflammasome-mediated Cas-1 activation model, administering the drug during the second stage where the zymogen was converted into activated Cas-1. MCC950, a selective NLRP3 inflammasome inhibitor that could suppress Cas-1 activation, was selected as the positive drug.[41] […] To validate the efficacy of the Cas-1 modulator screening system (Fig. 6a), we first observed the fluorescence images of PMs stained with FPy1 (5 μM) in the control group, model group, and positive drug group. […] Subsequently, the impact of 25 natural products (10 μM) on activated Cas-1 were studied using high-content analysis (Fig. S20). […] To determine whether deoxyshikonin directly binds to Cas-1 and inhibits its activity, we conducted fluorescence detection following co-incubation of deoxyshikonin, FPy1 and Cas-1. […]
# Harvested rat discs were fixed in 4 % buffered paraformaldehyde for 24 hours, decalcified in 10 % ethylenediaminetetraacetic acid (EDTA, Solarbio, E8030) solution for 1 month, embedded in paraffin, and sectioned at a thickness of 5 μm. […] Stained sections were evaluated by three independent raters, blinded to the research protocol, and measurements were averaged for statistical analysis. […]
# In vivo fluorescence imaging of intervertebral disc degeneration
# Twelve rats were modeled with needle puncture-induced intervertebral disc degeneration at the Co5/6, Co6/7 and Co 7/8 levels. […] In vivo fluorescence images were acquired using an in vivo Imaging System (PerkinElmer). […]
# In vivo fluorescence imaging of osteoarthritis […]
# caspase-1 [2] = biological target: T1, caspase-1 (Homo sapiens, UniProt P29466); test: Reaction time of probes for caspase-1; assay type: biochemical; details: probe 5 μM, Cas-1 2 U/mL, assay buffer, 37 °C
# T1 sequence (P29466 120-297 limits assumed): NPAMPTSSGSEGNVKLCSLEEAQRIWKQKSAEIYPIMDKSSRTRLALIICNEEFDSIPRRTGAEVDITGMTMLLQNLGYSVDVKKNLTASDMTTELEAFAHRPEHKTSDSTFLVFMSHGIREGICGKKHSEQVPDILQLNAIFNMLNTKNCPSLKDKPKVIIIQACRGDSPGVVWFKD
# T1 sequence (P29466 317-404 limits assumed): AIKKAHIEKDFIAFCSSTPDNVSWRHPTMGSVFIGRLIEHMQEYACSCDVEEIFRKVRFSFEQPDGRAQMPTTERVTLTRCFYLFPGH
# Protocol: The spectral and chemical properties of all probes were then evaluated. Upon interaction with Cas-1, the specific peptide of the probes is cleaved, leading to the disruption of the FRET process in the system and the recovery of donor fluorescence (Fig. 2a). Prior to fluorescence detection, the UV-vis absorption spectra of the probes were acquired. […] Subsequently, the sensitivity of the probes towards Cas-1 was measured in HEPES buffer (50 mM HEPES, 50 mM NaCl, 0.1% chaps, 5% glycerol, 10 mM DTT, 10 mM EDTA). […] The response differences among the probes were more intuitively observed by analyzing the standard curves of fluorescence intensity at 585 nm against the concentration of Cas-1 (Fig. 2b). […] The reaction kinetics of the probes were also measured by monitoring the fluorescence intensity of FPy1, YPy1 and WPy1 (0.5–4 μM) following incubation with Cas-1 (2 U mL^−1) (Fig. S3a–f). […] The reaction time of the probes was also investigated by monitoring the fluorescence spectra of the probes (5 μM) incubated with Cas-1 (2 U mL^−1) at various time intervals (Fig. S4a–c). […] Finally, the selectivity of the probes was evaluated. […]
# (§1) To investigate the sensitivity of the probes for caspase-1, varying concentration of caspase-1 (0, 0.2, 0.4, 0.6, 0.8, 1.0, 1.25, 1.5, 1.75, 2, 2.5, 3 U/mL) were incubated with FPy1 (5 μM), YPy1 (5 μM) and WPy1 (5 μM) respectively in caspase-1 assay buffer (50 mM HEPES, 50 mM NaCl, 0.1 % chaps, 5 % glycerol, 10 mM DTT, 10 mM EDTA) at 37 °C for 2 hours. Fluorescence spectra were recorded using Hitachi F-2700 spectrophotometer with an excitation at 510 nm (Photomultiplier voltage 700 V; Slit widths ex: 10 nm and em =5.0 nm). The fluorescence intensity of FPy1, YPy1 and WPy1 at 585 nm were plotted against the concentration of caspase-1, and a linear regression fitted from the corresponding concentration of caspase-1, and linear regression was applied to determine the slope k. The limit of detection (LoD) was calculated from 3σ/k, in which σ represents the standard deviation of 15 blank measurements. […]
# caspase-1 [3] = biological target: T1, caspase-1; test: Sensitivity of probes for caspase-1 (fluorescence at 585 nm); assay type: biochemical; details: probe 5 μM
# Protocol: The spectral and chemical properties of all probes were then evaluated. Upon interaction with Cas-1, the specific peptide of the probes is cleaved, leading to the disruption of the FRET process in the system and the recovery of donor fluorescence (Fig. 2a). Prior to fluorescence detection, the UV-vis absorption spectra of the probes were acquired. […] Subsequently, the sensitivity of the probes towards Cas-1 was measured in HEPES buffer (50 mM HEPES, 50 mM NaCl, 0.1% chaps, 5% glycerol, 10 mM DTT, 10 mM EDTA). […] The response differences among the probes were more intuitively observed by analyzing the standard curves of fluorescence intensity at 585 nm against the concentration of Cas-1 (Fig. 2b). […] The reaction kinetics of the probes were also measured by monitoring the fluorescence intensity of FPy1, YPy1 and WPy1 (0.5–4 μM) following incubation with Cas-1 (2 U mL^−1) (Fig. S3a–f). […] The reaction time of the probes was also investigated by monitoring the fluorescence spectra of the probes (5 μM) incubated with Cas-1 (2 U mL^−1) at various time intervals (Fig. S4a–c). […] Finally, the selectivity of the probes was evaluated. A series of potential biologically relevant interferents were selected, and the results illustrated that these interferents had no effect on the probes (Fig. S5a–c). Further selectivity validation was performed through incubating with caspase-3 (1 μg mL^−1), caspase-4 (2 U mL^−1), caspase-8 (1 μg mL^−1) from the caspase protease family. […] Therefore, FPy1 appeared to be the prime candidate for Cas-1 imaging applications. […]
# Cell culture plates were sourced from Wuxi NEST Biotechnology. Recombinant human caspase-1, caspase-3, caspase-4, and caspase-8 were obtained from Abcam and MCE (Shanghai, China). Anti-cleaved caspase-1 antibody, anti-GAPDH antibody, and goat anti-Rabbit/anti-mouse lgG/HRP were purchased from CST (USA) and Beyotime […]
# (§2) (Shanghai, China). […]
# (§3) Medical College (ethical approval number ZJCLA-IACUC-20011003).
# (§4) (also on this page, place not known: Wang,*f, Wang*abg Supplementary Information (SI) for Chemical Science. This journal is © The Royal Society of Chemistry 2025)
# (§5) (1 picture or pasted object on this page, not shown here) […]
# mixture was stirred for 3 h. DCM was removed under vacuum, and the residue was purified by silica gel column chromatography (DCM/MeOH, 180/1) to afford WPy1 as a dark purple solid (21 mg, 6 % yield). HRMS (ESI+): calcd […]
# Analysis of probe purity by LC-MSD
# Prepare dilute solutions of FPy1, YPy1 and WPy1 using chromatographic-grade acetonitrile and transfer them to sample vials. Begin with an initial mobile phase consisting of 20% acetonitrile (0.05 % formic acid) and 80% H2O (0.05 % formic acid). Over the course of 30 minutes, implement a gradient change to a mobile phase of 90% acetonitrile (0.05 % formic acid) and 10% H2O (0.05 % FA). Under the elution conditions, LC-MSD was performed on the above probe solutions and blank solvent acetonitrile.
# Sensitivity of probes for caspase-1
# To investigate the sensitivity of the probes for caspase-1, varying concentration of caspase-1 (0, 0.2, 0.4, 0.6, 0.8, 1.0, 1.25, 1.5, 1.75, 2, 2.5, 3 U/mL) were incubated with FPy1 (5 μM), YPy1 (5 μM) and WPy1 (5 μM) respectively in caspase-1 assay buffer (50 mM HEPES, 50 mM NaCl, 0.1 % chaps, 5 % glycerol, 10 mM DTT, 10 mM EDTA) at 37 °C for 2 hours. Fluorescence spectra were recorded using Hitachi F-2700 spectrophotometer with an excitation at 510 nm (Photomultiplier voltage 700 V; Slit widths ex: 10 nm and em =5.0 nm). The fluorescence intensity of FPy1, YPy1 and WPy1 at 585 nm were plotted against the concentration of caspase-1, and a linear regression fitted from the corresponding concentration of caspase-1, and linear regression was applied to determine the slope k. The limit of detection (LoD) was calculated from 3σ/k, in which σ represents the standard deviation of 15 blank measurements.
# Various concentrations of FPy1, YPy1 and WPy1 (0.5, 1, 2, 4 μM) in 100 μL enzyme assay buffer (50 mM HEPES, 50 […]
# caspase-8 = test: Selectivity of probes: caspase-8; assay type: biochemical, human; details: caspase-8 1 μg/mL, 37 °C, 2 h, λex 510 nm, λem 585 nm
# Excerpt: The resin used for SPPS was purchased from GL Biochem (Shanghai, China). Lipopolysaccharide (LPS, L2630), Nigericin and ATP (11140965001) were purchased from Merck (Shanghai, China) and Invitrogen (Shanghai, China), respectively. Cell culture plates were sourced from Wuxi NEST Biotechnology. Recombinant human caspase-1, caspase-3, caspase-4, and caspase-8 were obtained from Abcam and MCE (Shanghai, China). Anti-cleaved caspase-1 antibody, anti-GAPDH antibody, and goat anti-Rabbit/anti-mouse lgG/HRP were purchased from CST (USA) and Beyotime […]
# as §2, §3, §4, §5
# mixture was stirred for 3 h. […]
# as §1
# The fluorescence intensity at 585 nm was measured on a Tecan Infinite M1000 Multi-function microplate reader (λex = 510 nm) at 37 °C every 2 minutes. The K M value of probes was determined from the Lineweaver-Burk plot. […]
Compound,"fluorescence intensity of FPy1, positive drug group vs model group [1]",time to maximum fluorescence intensity at 585 nm (reaction time) (caspase-1 [2]),maximum fluorescence intensity at 585 nm (caspase-1 [3]; compared with FPy1 and YPy1),baseline fluorescence intensity at 585 nm (caspase-1 [3]; compared with other probes),"linear fitting range of Cas-1 concentration (caspase-1 [3]; fluorescence intensity at 585 nm vs Cas-1 concentration, 37 °C, 2 h)","enhancement of fluorescence intensity at 585 nm (caspase-1 [3]; Cas-1 0–3 U/mL, assay buffer 50 mM HEPES, 50 mM NaCl, 0.1% chaps, 5% glycerol, 10 mM DTT, 10 mM EDTA, 37 °C, 2 h, λex 510 nm)",fluorescence response to caspase-8 (caspase-8)
"CC(C)(O)c1coc(S(=O)(=O)NC(=O)Nc2c3c(cc4c2CCC4)CCC3)c1 [MCC950, reference compound]",significantly lower than in the model group,–,–,–,–,–,–
"–WEHDG– [WPy1, caspase-1-responsive FRET probe with recognition peptide –WEHDG–; RhoB donor, hNR quencher]",–,60 min,significantly lower than that of FPy1 and YPy1,lower baseline fluorescence intensity,0–1.25 U mL^−1,about 11.5 fold,a certain level of response to caspase-8

# — publication PMC12598616, “Design and optimization of caspase-1-responsive fluorescent probes for pyroptosis imaging and anti-pyroptosis drug screening” (Chemical Science, 2025)
